Source: publication PMC9879939, “Synergy of ruthenium metallo-intercalator, [Ru(dppz)2(PIP)]^2+, with PARP inhibitor Olaparib in non-small cell lung cancer cells” (Scientific Reports, 2023)
Where “and” joins values, the source holds several entries; their conditions need not be identical. Identical values can stand only once.

Experiments:
[1] = system: T24 bladder cancer cells; test: MTT assay (cell viability; CI and SI derived from it); assay type: cell-based, human; details: for IC50: T24, max tested 100 μM, combinations: Ru-PIP gradient with fixed Olaparib; for Selectivity Index (SI) = IC50 normal cells/IC50 cancer cells: MRC5 vs T24
Description: (§1) Cells were seeded in 96-well plates at 5 × 10^3 cells/well and allowed to adhere overnight. […] For drug combination treatment, cells were treated with concentration gradient of Ru-PIP (3.125–100 µM) in combination with Olaparib (5 or 10 µM). After 24, 48 or 72 h incubation, 0.5 mg/ml thiazolyl blue tetrazolium bromide (MTT) dissolved in 1X PBS was added to each well and cells were incubated at 37 °C for 4 h. 100 µl of DMSO was added to each well to solubilize the reduced purple formazan crystals formed. Next, the absorbance at 570 nm (630 nm as reference wavelength) was measured using a microplate reader. The half maximal inhibitory concentration (IC50) for each compound was determined using GraphPad Prism software. Additionally, selectivity indices (SI) were determined by the ratio between IC50 of normal cells and that of cancer cells.
(§2) Based on the data obtained from MTT assay, combination indices (CI) were determined using Calcusyn and CompuSyn software (Biosoft, Cambridge, UK). This is based on the established drugs combination method by Chou and Talalay[30],[31]. CI values indicate the type of drugs interaction in which CI < 0.9 indicates synergism, CI = 0.9–1.0 indicates additive and CI > 1.0 indicates antagonism. GraphPad Prism software was used to generate a three-color scale based on CI values obtained, where synergism is represented by green, additive by yellow, and antagonism by red in which the colors of each CI value were interpolated in between these constraints accordingly.

[2] = system: A549 lung cancer cells; test: as above; assay type: cell-based, human; details: for IC50: A549, max tested 100 μM, combinations: Ru-PIP gradient with fixed Olaparib; for Selectivity Index (SI) = IC50 normal cells/IC50 cancer cells: MRC5 vs A549
Description: as §1, §2

[3] = system: H1975 lung cancer cells; test: as above; assay type: cell-based, human; details: for IC50: H1975, max tested 100 μM, combinations: Ru-PIP gradient with fixed Olaparib; for Selectivity Index (SI) = IC50 normal cells/IC50 cancer cells: MRC5 vs H1975
Description: as §1, §2

[4] = system: MRC5 normal human lung fibroblasts; test: MTT assay (cell viability); assay type: cell-based; details: max tested 100 μM, combinations: Ru-PIP gradient with fixed Olaparib
Description: as §1

[5] = system: A549 cells; test: Apoptosis annexin V-FITC assay; assay type: cell-based, human
Description: Lung cancer cells were seeded in 6-well plate at 1 × 10^5 cells/well and allowed to adhere overnight. Cells were treated with Ru-PIP (25 µM), Olaparib (5 µM) or both. After 24 or 48 h incubations, cells were harvested, washed with 1X PBS twice and 500 µl of 1X binding buffer was added to the samples. After, the samples were incubated with 5 µl Annexin V-FITC (Invitrogen) for 20 min at RT. Prior to flow cytometric analysis, 5 µl of PI was added. Samples were acquired was analyzed using NovoCyte flow cytometer and NovoExpress software. For each sample, a minimum of 10,000 cells were counted and analyzed.

[6] = system: A549 cells; test: Cell cycle analysis (PI staining, flow cytometry); assay type: cell-based, human; details: Ru-PIP 25 µM, 24 h
Description: Lung cancer cells were seeded in 6-well plate at density of 1 × 10^5 cells/well and allowed to adhere overnight. Cells were treated with Ru-PIP (25 µM), Olaparib (5 µM) or both. After 24 or 48 h incubations, cells were harvested, washed with 1X PBS twice, and fixed with ice-cold 70% ethanol at least overnight at − 20 °C. The fixed cells were collected by centrifugation at 1,000 rpm for 5 min and the resulting pellets were washed with 1X PBS twice. The samples were resuspended in 500 µl PBS and treated with 5 µl RNase A solution (10 mg/ml) for 15 min at RT. After incubation, the samples were stained with 2 µl of propidium iodide (PI) solution (5 mg/ml) at RT, in the dark. Samples were acquired, and cell cycle distribution was analyzed using NovoCyte flow cytometer and NovoExpress software. For each sample, a minimum of 10,000 cells were counted and analyzed.

[7] = system: A549, H1975 and T24 cells; test: MTT assay, summary statements over the cancer cell lines; assay type: cell-based, human
Description: as §1

[8] = in vivo; details: zebrafish, in vivo
Description: (§3) The newly fertilized eggs at less than 1 hpf (hours post fertilization) were collected, washed with deionized water and incubated at RT (28 ± 1 °C) in Danio-SprintM embryo media. […] Untreated control consisting of Danio-SprintM embryo media containing 0.1% DMSO. 24 embryos were used in total for each concentration per treatment of two independent experiments (n = 24). The zebrafish embryos development was observed and imaged using a light microscope attached to a digital camera at 24, 48, 72 and 96 hpf (hours post fertilization). Four lethal endpoints were evaluated including coagulated embryos, lack of somite formation, non-detachment of the tail and lack of heartbeat. All these characteristics were recorded every 24 hpf, except heartbeat, which is visible after 48 hpf. […] Hatching which is also considered as a sensitive endpoint toxicity parameter was also observed in which hatching normally occurs at 48 to 72 hpf.

[9] = system: zebrafish embryos; test: Acute toxicity test on zebrafish embryos (OECD Test No. 236); details: zebrafish embryos
Description: as §3

[10] = system: A549 spheroids; test: Spheroids growth inhibition studies; assay type: cell-based, human; details: Ru-PIP 25 µM; for structural integrity of pre-formed spheroids: Olaparib 5 µM or both, 12 days after treatment initiation
Description: Spheroids establishment was attempted for A549 lung cancer cells using hanging drop method. 20 µL of cell suspension containing 2000, 4000, 6000, 8000 and 10,000 cells were dropped onto the surface of petri dish lid and incubated at 37 °C, such that each drop will contain single spheroid. After three days of incubation, each spheroid formed was transferred onto agarose-coated (50 µL, 0.6%) 96-well plates containing 80 µL growth media and further incubated for 15 days at 37 °C, such that each well contained a single spheroid. Formation of spheroids was observed and imaged every three days using a light microscope with a 4 × objective lens connected to a digital camera. During growth, 50% of the media was replaced every three days. The growth in volume of each spheroid was determined according to a published method. At least six spheroids were grown per seeding density for each independent experiment.
Spheroids were grown as described initially. Initial cell seeding density was chosen such that each spheroid reached a diameter of approximately 400 μm after three days (4,000 cells/well for A549 cells). After spheroids formation, spheroids were incubated with Ru-PIP (25 µM), Olaparib (5 µM) or both for a period of 12 days. The structural integrity of spheroids upon treatment was observed and imaged for every three days using a light microscope with a 4 × objective lens connected to a digital camera, and the volume of each spheroid was measured according to a published method. Prior to imaging, 50% of treatment-containing medium was replaced (every three days). At least six spheroids were grown per treatment for each independent experiment.

[11] = system: A549 cells; test: Wound healing assay; assay type: cell-based, human
Description: Lung cancer cells were seeded at density of 5 × 10^5 cells/well in a 6-well plate and were incubated in the incubator until a confluent monolayer of cells formed. After serum-starved for 4 h, a straight scratch was made in each well with a sterile 200 µl pipette tip, solution was removed, and each well was washed with 1X PBS twice. Cells were treated with Ru-PIP (25 µM), Olaparib (5 µM) or both. Cells migration in the wound scratch area was photographed at 0, 24, 48 and 72 h timepoints. Images were photographed at 10 × magnification using a camera attached microscope and were analyzed using ImageJ software. The percentage of wound scratch closure was determined by measuring the reduction in the wound area at each time point by comparing to 0 h (100%).

[12] = 24 h, Ru-PIP 25 µM or Olaparib 5 µM

## N.N.[Cl][Pt][Cl] [Cisplatin, cis-diamminedichloroplatinum(II)]
[1]; 24 h
  IC50: 59.6 ± 7 µM
[1]; 48 h
  IC50: 20.8 ± 7.2 µM
[1]; 72 h
  IC50: 7.3 ± 1.1 µM
[2]; 24 h
  IC50: 6.6 ± 2 µM
[2]; 48 h
  IC50: 4.8 ± 0.5 µM
[2]; 72 h
  IC50: 2.9 ± 1.2 µM
[3]; 24 h
  IC50: 26.6 ± 9.9 µM
[3]; 48 h
  IC50: 20 ± 6.7 µM
[3]; 72 h
  IC50: 13.5 ± 5.7 µM
[4]; 24 h
  IC50: 13.5 ± 2.4 µM
[4]; 48 h
  IC50: 9.5 ± 1.2 µM
[4]; 72 h
  IC50: 7.4 ± 2 µM

## O=C(c1cc(Cc2n[nH]c(=O)c3ccccc23)ccc1F)N1CCN(C(=O)C2CC2)CC1 [Olaparib]
[5]; [12]
  levels of apoptotic cells: comparable levels of apoptotic cells with untreated control
[1]; Homo sapiens, 24 h
  IC50: > 100 µM
[1]; Homo sapiens, 48 h
  IC50: > 100 µM
[1]; Homo sapiens, 72 h
  IC50: > 100 µM
[2]; Homo sapiens, 24 h
  IC50: > 100 µM
[2]; Homo sapiens, 48 h
  IC50: > 100 µM
[2]; Homo sapiens, 72 h
  IC50: > 100 µM
[3]; Homo sapiens, NCI-H1975, 24 h
  IC50: > 100 µM
[3]; Homo sapiens, NCI-H1975, 48 h
  IC50: > 100 µM
[3]; Homo sapiens, NCI-H1975, 72 h
  IC50: 71.7 ± 11.8 µM
[3]; 72 h
  Selectivity Index (SI) = IC50 normal cells/IC50 cancer cells: >1.3
[6]; Olaparib 5 µM or both
  cell cycle profile: comparable cell cycle profile with the untreated control
[7]; Homo sapiens, 72 h, A549, H1975 and T24 cells together, read-out: 72 h IC50 on the tested cancer cells
  IC50: > 71.7 µM
[4]; Homo sapiens, 24 h
  IC50: > 100 µM
[4]; Homo sapiens, 48 h
  IC50: > 100 µM
[4]; Homo sapiens, 72 h
  IC50: > 100 µM
[8]
  LC50 at 96 h: > 100 µg/mL
[9]; > 25 mg/L
  morphological changes of embryos: substantial morphological abnormalities of pericardial edema, yolk sac edema and spinal deformity
[10]
  structural integrity of pre-formed spheroids: remained structurally intact
[11]; Olaparib 5 µM
  impact on cell migration: negligible impact on cell migration

## [Ru+2].c1ccc(-c2nc3c4cccnc4c4ncccc4c3[nH]2)cc1.c1ccc2nc3c4cccnc4c4ncccc4c3nc2c1.c1ccc2nc3c4cccnc4c4ncccc4c3nc2c1 [Ru-PIP, [Ru(dppz)2(PIP)]^2+]
[5]; [12]
  levels of apoptotic cells: comparable levels of apoptotic cells with untreated control
[5]; 48 h, Ru-PIP 25 µM alone or with Olaparib 5 µM
  levels of apoptotic cells: increase in apoptotic cells was observed
[1]; 24 h
  Selectivity Index (SI) = IC50 normal cells/IC50 cancer cells: >2.2
  IC50: 45.1 ± 6.2 µM
[1]; 48 h
  Selectivity Index (SI) = IC50 normal cells/IC50 cancer cells: 4.0
  IC50: 22.7 ± 2.8 µM
[1]; 72 h
  Selectivity Index (SI) = IC50 normal cells/IC50 cancer cells: >6.3
  IC50: 15.8 ± 2.9 µM
[2]; 24 h
  IC50: 34.5 ± 10.5 µM
  Selectivity Index (SI) = IC50 normal cells/IC50 cancer cells: >2.8
[2]; 48 h
  IC50: 19.4 ± 3.5 µM
  Selectivity Index (SI) = IC50 normal cells/IC50 cancer cells: 4.6
[2]; 72 h
  IC50: 11.4 ± 0.3 µM
  Selectivity Index (SI) = IC50 normal cells/IC50 cancer cells: > 8.7
[3]; 24 h
  IC50: > 100 µM
[3]; 48 h
  IC50: 95.1 ± 2.9 µM
  Selectivity Index (SI) = IC50 normal cells/IC50 cancer cells: 0.9
[3]; 72 h
  IC50: 59.4 ± 11.6 µM
  Selectivity Index (SI) = IC50 normal cells/IC50 cancer cells: >1.6
[6]
  increase in G1 phase compared to control: 16.1%
[7]; 72 h treatments, A549, H1975 and T24 cells vs normal MRC5 cells
  selectivity indices (SI): > 1.6
[4]; 24 h
  IC50: > 100 µM
[4]; 48 h
  IC50: 91 ± 7.9 µM
[4]; 72 h
  IC50: > 100 µM
[9]; 50 mg/L Ru-PIP alone, 96 hpf
  embryos showing yolk sac edema: 33%
[9]; 100 mg/L
  embryos' hatching prevented: ~100%
[9]; 96 h treatment
  96 h LC50: 57.5 mg/L and 55.5 mg/L
[9]; < 25 mg/L
  survival and morphological changes of embryos: the embryos survive without any morphological defects
[10]; 12 days
  spheroid growth: prevented spheroid growth
[10]
  structural integrity of pre-formed spheroids: remained structurally intact
[11]; Ru-PIP 25 µM, time point not stated (untreated 100% closed at 72 h)
  wound closure: 88%
